How the values were obtained:
[1] = compound: C1CN(CCC1(C(=O)N[C@@H](CCO)C2=CC=C(C=C2)Cl)N)C3=NC=NC4=C3C=CN4 [Capivasertib]
How it was run: (§1)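 Cancer cell lines were plated in 1536-well plates in 7.5 μl of DMEM/F12 or RPMI with 10% FBS and kept 24 hours at 37°C and 5% CO2 before 72 hours of dosing, with final DMSO typically 0.2%. CellTiter-Glo 2.0 luminescence measured viability, scaled between blank-well and DMSO-well means. Dose responses were fitted to a two-parameter logistic curve with a non-linear mixed effects model. This fit gives the single-agent IC50.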

[2] = compound: C=CCn1c(=O)c2cnc(Nc3ccc(N4CCN(C)CC4)cc3)nc2n1-c1cccc(C(C)(C)O)n1 [AZD1775]; conditions: max 3 µM
How it was run: as §1

[3] = compound: CC(=O)Nc1cccc(-n2c(=O)n(C3CC3)c(=O)c3c(Nc4ccc(I)cc4F)n(C)c(=O)c(C)c32)c1 [Trametinib]; conditions: max 1 µM
How it was run: as §1

[4] = compound: CC(=O)c1c(C)c2cnc(Nc3ccc(N4CCNCC4)cn3)nc2n(C2CCCC2)c1=O [Palbociclib]; conditions: max 10 µM
How it was run: as §1

[5] = compound: CC(C)n1c(=O)n(C)c2cnc3cc(F)c(-c4ccc(OCCCN5CCCCC5)nc4)cc3c21 [AZD1390]; conditions: max 0.3 µM
How it was run: as §1

[6] = compound: CC1(C)CCC(CN2CCN(c3ccc(C(=O)NS(=O)(=O)c4ccc(NCC5CCOCC5)c([N+](=O)[O-])c4)c(Oc4cnc5[nH]ccc5c4)c3)CC2)=C(c2ccc(Cl)cc2)C1 [Venetoclax]; conditions: max 1 µM
How it was run: as §1

[7] = compound: CC1=C(C(=CC=C1)Cl)NC(=O)C2=CN=C(S2)NC3=CC(=NC(=N3)C)N4CCN(CC4)CCO [Dasatinib]; conditions: max 2 µM
How it was run: as §1

[8] = compound: CC1=CN2[C@@H](C1)C=NC3=CC(=C(C=C3C2=O)OC)OCCCCCOC4=C(C=C5C(=C4)N=C[C@@H]6CC(=CN6C5=O)C)OC [SG3199]; conditions: max 0.001 µM
How it was run: as §1

[9] = compound: CCN(CCO)CCCOc1ccc2c(Nc3cc(CC(=O)Nc4cccc(F)c4)[nH]n3)ncnc2c1 [AZD2811]; conditions: max 1 µM
How it was run: as §1

[10] = compound: CCc1c2c(nc3ccc(O)cc13)-c1cc3c(c(=O)n1C2)COC(=O)[C@]3(O)CC [SN-38]; conditions: max 0.3 µM
How it was run: as §1

[11] = compound: CN(C)CCCOc1ccc(-c2ccc3ncc4c(c3c2)n(C2CCOCC2)c(=O)n4C)cn1 [AZD0156]; conditions: max 3 µM
How it was run: as §1

[12] = compound: CN(CC[C@H](CSC1=CC=CC=C1)NC2=C(C=C(C=C2)S(=O)(=O)NC(=O)C3=CC=C(C=C3)N4CCC(CC4)[C@H](C5=CC=CC=C5C6=CC=C(C=C6)Cl)O)S(=O)(=O)C(F)(F)F)CCO [AZD4320]; conditions: max 1 µM
How it was run: as §1

[13] = compound: COc1cc(Nc2ncc3c(n2)-c2ccc(Cl)cc2C(c2c(F)cccc2OC)=NC3)ccc1C(=O)O [Alisertib]; conditions: max 10 µM
How it was run: as §1

[14] = compound: COc1cc2ncnc(Nc3ccc(F)c(Cl)c3)c2cc1OCCCN1CCOCC1 [Gefitinib]; conditions: max 10 µM
How it was run: as §1

[15] = compound: COc1cccc(OCCCN)c1-c1cc(Nc2cnc(C#N)cn2)n[nH]1 [Prexasertib]; conditions: max 1 µM
How it was run: as §1

[16] = compound: COc1cccc2c1C(=O)c1c(O)c3c(c(O)c1C2=O)C[C@@](O)(C(=O)CO)C[C@@H]3O[C@H]1C[C@H](N)[C@H](O)[C@H](C)O1 [Doxorubicin]; conditions: max 1 µM
How it was run: as §1

[17] = compound: COc1nnc2ccc(N3CCC(c4ccc(OCCN5CCN(C)C(=O)[C@H]5C)cc4)CC3)nn12 [AZD5153]; conditions: max 1 µM
How it was run: as §1

[18] = compound: CS(=O)(=O)CCNCc1ccc(-c2ccc3ncnc(Nc4ccc(OCc5cccc(F)c5)c(Cl)c4)c3c2)o1 [Lapatinib]; conditions: max 10 µM
How it was run: as §1

[19] = compound: C[C@@H](Nc1cc(F)cc(F)c1)c1cc(C(=O)N(C)C)cc2c(=O)cc(N3CCOCC3)oc12 [AZD8186]; conditions: max 3 µM
How it was run: as §1

[20] = compound: C[C@@H](Oc1cc(-c2cnn(C3CCNCC3)c2)cnc1N)c1c(Cl)ccc(F)c1Cl [Crizotinib]; conditions: max 10 µM
How it was run: as §1

[21] = compound: C[C@@H](c1ccc2nccn2c1)n1nnc2ncc(-c3cnn(C)c3)nc21 [Savolitinib]; conditions: max 1 µM
How it was run: as §1

[22] = compound: C[C@@H]1COCCN1C2=NC(=NC(=C2)C3(CC3)[S@](=N)(=O)C)C4=C5C=CNC5=NC=C4 [AZD6738]; conditions: max 10 µM
How it was run: as §1

[23] = compound: Cc1c2c(nn1C)CSCc1cc(n(C)n1)CSc1cc(c3ccccc3c1)OCCCc1c(C(=O)O)n(C)c3c-2c(Cl)ccc13 [AZD5991]; conditions: max 1 µM
How it was run: as §1

[24] = compound: Cc1cc2ncnn2cc1Nc1ncc2c(n1)n(C1CCOCC1)c(=O)n2C [AZD7648]; conditions: max 10 µM
How it was run: as §1

[25] = compound: Cc1nc(-c2cn3c(n2)-c2ccc(-c4cnn(C(C)(C)C(N)=O)c4)cc2OCC3)n(C(C)C)n1 [Taselisib]; conditions: max 10 µM
How it was run: as §1

[26] = compound: Cn1cnc2c(F)c(Nc3ccc(Br)cc3Cl)c(C(=O)NOCCO)cc21 [Selumetinib]; conditions: max 10 µM
How it was run: as §1

[27] = compound: O=C(c1cc(Cc2n[nH]c(=O)c3ccccc23)ccc1F)N1CCN(C(=O)C2CC2)CC1 [Olaparib]; conditions: max 10 µM
How it was run: as §1

Row | Cell Line | IC50, cell viability 72 h ([1]; max 10 µM) [µM] | IC50, cell viability 72 h [2] [µM] | IC50, cell viability 72 h [3] [µM] | IC50, cell viability 72 h [4] [µM] | IC50, cell viability 72 h [5] [µM] | IC50, cell viability 72 h [6] [µM] | IC50, cell viability 72 h [7] [µM] | IC50, cell viability 72 h [8] [µM] | IC50, cell viability 72 h [9] [µM] | IC50, cell viability 72 h [10] [µM] | IC50, cell viability 72 h [11] [µM] | IC50, cell viability 72 h [12] [µM] | IC50, cell viability 72 h [13] [µM] | IC50, cell viability 72 h [14] [µM] | IC50, cell viability 72 h [15] [µM] | IC50, cell viability 72 h [16] [µM] | IC50, cell viability 72 h [17] [µM] | IC50, cell viability 72 h [18] [µM] | IC50, cell viability 72 h [19] [µM] | IC50, cell viability 72 h [20] [µM] | IC50, cell viability 72 h [21] [µM] | IC50, cell viability 72 h [22] [µM] | IC50, cell viability 72 h [23] [µM] | IC50, cell viability 72 h [24] [µM] | IC50, cell viability 72 h [25] [µM] | IC50, cell viability 72 h [26] [µM] | IC50, cell viability 72 h [27] [µM] | IC50, cell viability 72 h ([1]; max 3 µM) [µM]
1 | HCC1187 (Breast Carcinoma) | > 10 | 1.06 | > 1 | > 10 | > 0.3 | > 1 | > 2 | > 0.001 | 0.0294 | > 0.3 | > 3 | > 1 | 0.114 | > 10 | 0.362 | > 1 | > 1 | > 10 | > 3 | 4.57 | > 1 | > 10 | 0.0877 | > 10 | > 10 | > 10 | > 10 | 
2 | HCC1419 (Breast Carcinoma) |  | > 3 | > 1 |  | > 0.3 | > 1 |  | > 0.001 | > 1 | > 0.3 | > 3 | > 1 | > 10 | > 10 | > 1 | > 1 | > 1 |  | > 3 |  | > 1 | > 10 | > 1 | > 10 | 7.76 | > 10 | > 10 | > 3
3 | JHH-4 (Hepatocellular Carcinoma) | > 10 | > 3 | 0.118 | > 10 | > 0.3 | > 1 | 0.173 | > 0.001 | > 1 | 0.031 | > 3 | > 1 | 6.48 | > 10 | 0.912 | > 1 | > 1 | > 10 | > 3 | > 10 | > 1 | > 10 | > 1 | > 10 | > 10 | > 10 | > 10 | 
4 | KMS-12-BM (Plasma Cell Myeloma) | 9.31 | 0.329 | > 1 | 3.66 | > 0.3 | 0.0164 | > 2 | > 0.001 | > 1 | 0.0248 | > 3 | 0.0173 | 3.57 | > 10 | 0.017 | 0.891 | 0.0134 | 7.08 | > 3 | 3.54 | > 1 |  | 0.0139 | > 10 | 2.43 | > 10 | > 10 | 
5 | MOLM-13 (Acute Myeloid Leukemia) | 1.87 | 0.16 | 0.0242 | 0.605 | > 0.3 | 0.0235 | 0.932 | > 0.001 | 0.0189 | 0.00355 | > 3 | 0.00677 | 0.0527 | 4.32 | 0.00531 | 0.04 | 0.0289 | > 10 | > 3 | 1.23 | > 1 | 0.584 | 0.0465 | > 10 | 6.31 | 4.04 | 6.77 | 

— the supplement of paper PMC11061612
